{
  "source": "patent US11259522B2",
  "about": "“Control of resistant pests” (priority 2017, dated 2022)",
  "key": {"[1]": {"test_system": "Rhipicephalus microplus larvae, multi-resistant Tiaro reference strain", "assay": "Larval packet test (LPT), cattle tick larvae, multi-resistant strain", "type": "in vivo", "details": "for LC50 (ppm) / LC99 (ppm): Tiaro, Probit analysis", "procedure": "Filter papers (75 mm×85 mm Whatman® No. 541), with grid patterns, were impregnated on ½ of the paper with 225 μL of each solution using a micro-pipette and immediately folded in half, enveloped in polyethylene plastic and sealed with 3 bulldog clips. The impregnated papers were kept at room temperature on aluminium trays for a minimum of 60 minutes to allow for dispersal across the grid pattern of the paper prior to aliquoting of larvae. The packets were prepared in duplicate for each concentration, including the negative control.\nAliquots of approximately 100 larvae were placed into each packet using plastic disposable forceps and the packets resealed and incubated and 27° C. and 85% relative humidity (RH).\nAfter 24 hours, the larval packets were opened and the numbers of dead and live larvae were counted under a magnification lamp. Percentage mortality was calculated and, where applicable, corrected using Abbott's Formula (Abbott, 1925, J. Economic Entomology, 18:256-257): […]\nLC50 and LC99 values were determined by Probit mortality vs log concentration analysis. Probit values were derived from “Transformation of Percentages to Probit's Tables” published by Fisher R. A. and Yates F. (1938).\nThe LPT Assay of Example 1 was repeated using a narrow range of concentrations, 1 in 2 series, of flavesone to determine LC50 and LC99 values against the susceptible NRFS and the multi-resistant Tiaro reference strain.\nThe Tiaro strain of R. microplus comprises of about 30% fluazuron, 60.6% cypermethrin (SP), 57.6% flumethrin (SP), 16.2% amitraz (amidine), 11.3% DDT, 9.3% chlorpyrifos (OP) and 2.4% dieldrin resistance [2014 acaricide resistance profiling].\nThe stock solution of flavesone (100,000 ppm) was diluted 1 in 10 with olive oil (1 mL to 9 mL diluent) to give 10,000 ppm, which was then further diluted 1 in 2 in series (5 mL to 5 mL diluent) to give 5,000 ppm, 2,500 ppm, 1,250 ppm, 625 ppm, 312.5 ppm and 156.25 ppm concentrations.\nFor the preparation of the positive control, cypermethrin, a stock solution of a concentration of 10,000 ppm was prepared in 2:1 trichloroethylene (TCE)/olive oil as the solvent ([…] cypermethrin, 94.8% purity, to 10 mL solvent) and then further diluted 1 in 2 in series (5 mL to 5 mL solvent) to also give 5,000 ppm, 2,500 ppm, 1,250 ppm, 625 ppm, 312.5 ppm and 156.25 ppm.\nThe flavesone papers were prepared as in Example 1.\nThe cypermethrin papers were impregnated with 670 μL of each solution using a micro-pipette and hung on a rack in a fume-hood to allow papers to dry (evaporation of TCE) for a minimum of 60 minutes. The papers were then folded in half and sealed with three bulldog clips, placed on aluminium trays prior to aliquoting the larvae. All packets were prepared in duplicate.\nA dose-response relationship was determined at 24 hours contact exposure.\nConcentrations of 1,250 ppm, 625 ppm and 312.5 ppm flavesone concentrations prepared for Example 3 were used on the same day of preparation. Duplicate papers were prepared for both the NRFS and Tiaro strains (including negative controls) as described in Example 2.\nMortality was assessed at 48 hours and LC50 and LC99 values were determined by Probit mortality vs log concentration analysis."}, "[2]": {"test_system": "Halotydeus destructor susceptible population", "assay": "Coated plastic vial bioassay, redlegged earth mite, susceptible population", "type": "in vivo", "details": "for mortality at 300 µg/mL: 300 mg a.i./L", "procedure": "The efficacy of flavesone against H. destructor was assessed using the glass vial technique developed by Hoffmann et al. (1997, Exp. Appl. Acarol., 21:151-162), adapted for plastic vials. A susceptible population of mites was collected from capeweed (Arctotheca calendula) at a Victorian site (37° 40′33″S, 145° 07′ 45″E) that had no known history of insecticide application. Following collection, samples were stored in small plastic containers with leaf material and paper towel to absorb excess moisture. Containers were kept at 4° C. prior to testing.\nThe test compositions included 0.1% Tween 20 non-ionic surfactant to aid the spread of insecticides when coating plastic vials. This concentration of Tween 20 has been previously shown to have no toxic effect on H. destructor. For each insecticide concentration tested, 3, 10, 30, 100, 300, 1000, 3000 and 10000 mg a.i./L (ppm), approximately 10 mL of solution was poured into a 15 mL plastic vial and swirled to ensure a complete coating, with excess liquid removed. Eight vials were coated per concentration and were left to dry overnight. Control vials were treated in the same way but with water used in place of test composition.\nEight susceptible H. destructor mites were then placed into each vial along with a leaf of common vetch (Vicia sativa). The leaf was added to provide food and increase humidity. Vials were then sealed with a lid and placed at 18° C. After 4, 6, 8 and 24 hours of exposure, the mites were scored as alive (moving freely), incapacitated (inhibited movement), or dead (no movement over a 5 second period). […]\nThe data produced in the assays were assessed for concentrations that caused 50, 90 and 99% mortality (lethal concentration, LC), together with 95% confidence intervals (CIs) and were estimated from observations of mortality after 24 hours exposure using a binomial logistic regression (Robertson & Preisler, 1992, Pesticide Bioassays with Arthropods. CRC: Boca Raton; Venables & Ripley, 2002, Modern Applied Statistics with S. Springer: New York). Population differences were tested by comparing the change in model deviance with and without the population factor (different regression intercepts for each population). Differences in regression slopes between populations were tested by comparing the change in model deviance with and without the population×dose interaction term. The resistance ratio of the insecticide-resistant population was estimated as the ratio of its LC50 to that of the susceptible population. All analyses were performed using R 3.3. (R Core Team 2017, R: A language and environment for statistical computing. R Foundation for Statistical Computing, Vienna, Austria. http://www.R-project.org)."}, "[3]": {"test_system": "Oryzaephilus surinamensis strain QOS302 (resistant to fenitrothion & chlorpyrifos-methyl)", "assay": "Grain protectant bioassay on treated wheat, O. surinamensis resistant", "type": "in vivo", "details": "for Progeny reduction (%): vs untreated control"}, "[4]": {"test_system": "Aedes aegypti PRS Puerto Rican strain (synthetic pyrethroid resistant) L3 larvae", "assay": "Mosquito larval dose response assay, PRS strain", "details": "read-out: Lethal Concentration (LC50) PRS Strain"}, "[5]": {"details": "Rhipicephalus microplus, Example 2, 24 hours"}, "[6]": {"details": "Rhipicephalus microplus, Example 4, 48 hours"}, "[7]": {"details": "Susceptible population, 24 hours exposure"}},
  "note": "Where two headings read alike, the source gives them in different places.",
  "data": [
    {"smiles": "CC(C)C(=O)C1C(=O)C(C)(C)C(=O)C(C)(C)C1=O", "note": "[Flavesone, 1-isobutyroyl-3,3,5,5-tetramethylcyclohexane-2,4,6-trione]", "values": [
      {"measurement": "cross-resistance, comparing LC50 and LC99 data between NRFS and Tiaro strains", "setting": "[1]; Example 2, 24 hours", "value": "no evidence of cross-resistance"},
      {"measurement": "LC50 (ppm)", "setting": "[1]; Example 2, 24 hours", "value": 647, "unit": "ppm"},
      {"measurement": "LC99 (ppm)", "setting": "[1]; Example 2, 24 hours", "value": 1039, "unit": "ppm"},
      {"measurement": "LC50 (ppm)", "setting": "[1]; Example 4, 48 hours", "value": 521, "unit": "ppm"},
      {"measurement": "LC99 (ppm)", "setting": "[1]; Example 4, 48 hours", "value": 887, "unit": "ppm"},
      {"measurement": "mortality at 2.5 ppm", "setting": "[1]; Rhipicephalus microplus, Example 2, 2.500 ppm, 24 hours", "value": 100, "unit": "%"},
      {"measurement": "mortality at 156.25 ppm", "setting": "[1]; Rhipicephalus microplus, Example 2, 156.25 ppm, 24 hours", "value": 0, "unit": "%"},
      {"measurement": "mortality at 312.5 ppm", "setting": "[1]; [5]", "value": 0.13, "unit": "%"},
      {"measurement": "mortality at 625 ppm", "setting": "[1]; [5]", "value": 12.8, "unit": "%"},
      {"measurement": "mortality at 1250 ppm", "setting": "[1]; Rhipicephalus microplus, Example 2, 1,250 ppm, 24 hours", "value": 100, "unit": "%"},
      {"measurement": "mortality at 5000 ppm", "setting": "[1]; Rhipicephalus microplus, Example 2, 5,000 ppm, 24 hours", "value": 100, "unit": "%"},
      {"measurement": "mortality at 10000 ppm", "setting": "[1]; Rhipicephalus microplus, Example 2, 10,000 ppm, 24 hours", "value": 100, "unit": "%"},
      {"measurement": "mortality at 312.5 ppm", "setting": "[1]; [6]", "value": 0.97, "unit": "%"},
      {"measurement": "mortality at 625 ppm", "setting": "[1]; [6]", "value": 84.1, "unit": "%"},
      {"measurement": "mortality at 1250 ppm", "setting": "[1]; Rhipicephalus microplus, Example 4, 1250 ppm, 48 hours", "value": 100, "unit": "%"},
      {"measurement": "mortality", "setting": "[2]; Example 9, all application rates above 300 mg a.i./L, by 4 hours exposure", "value": 100, "unit": "%"},
      {"measurement": "mortality at 300 µg/mL", "setting": "[2]; Halotydeus destructor, Example 9, 4 hours of exposure, read-out: mortality (average)", "value": 55, "unit": "%"},
      {"measurement": "mortality at 300 µg/mL", "setting": "[2]; Halotydeus destructor, Example 9, by 8 hours of exposure, read-out: mortality", "value": 100, "unit": "%"},
      {"measurement": "LC50", "setting": "[2]; Halotydeus destructor, Susceptible population, 24 hours exposure, read-out: LC50 (mg a.i./L)", "value": 40.6, "unit": "µg/mL"},
      {"measurement": "LC90 (mg a.i./L)", "setting": "[2]; [7]", "value": 142.55, "unit": "mg a.i./L"},
      {"measurement": "LC99 (mg a.i./L)", "setting": "[2]; [7]", "value": 561.35, "unit": "mg a.i./L"},
      {"measurement": "Live adult progeny", "setting": "[3]; 25 mg/kg, mean ± SE", "value": "160.3 ± 15.7"},
      {"measurement": "Progeny reduction (%)", "setting": "[3]; 25 mg/kg", "value": 61.2, "unit": "%"},
      {"measurement": "Adult mortality (%)", "setting": "[3]; 60 mg/kg, 2 weeks, mean ± SE", "value": "14.7 ± 8.7", "unit": "%"},
      {"measurement": "Live adult progeny", "setting": "[3]; 60 mg/kg, mean ± SE", "value": "0.0 ± 0.0"},
      {"measurement": "Progeny reduction (%)", "setting": "[3]; 60 mg/kg", "value": 100, "unit": "%"},
      {"measurement": "mortality at 25 mg/kg", "setting": "[3]; Oryzaephilus surinamensis, 336 h, 25 mg/kg, 2 weeks, mean ± SE, read-out: Adult mortality (%)", "value": 0.7, "unit": "%"},
      {"measurement": "mortality at 60 mg/kg", "setting": "[3]; Oryzaephilus surinamensis, 336 h, 60 mg/kg, 2 weeks, mean ± SE, read-out: Adult mortality (%)", "value": 14, "unit": "%"},
      {"measurement": "LC50", "setting": "[4]; 24 h", "value": 40.9, "unit": "µg/mL"},
      {"measurement": "LC50", "setting": "[4]; 48 h", "value": 40.5, "unit": "µg/mL"},
      {"measurement": "LC50", "setting": "[4]; 72 h", "value": 39.7, "unit": "µg/mL"}
    ]}
  ]
}
